We go through 19 molecules from patent publication US11414416B1, “Compounds and uses thereof” (Foghorn Therapeutics Inc., priority 2019, dated 2022).

Molecules are shown by their SMILES.

This test deals with Nanoluciferase-BRD9 fusion protein (Homo sapiens (Human), UniProt Q9H8M2). Description: SYO1 BRD9 NanoLuc degradation assay. Type of test: cell-based. Particulars: Table 5B; SYO-1 cells expressing 3×FLAG-NLuc-BRD9, 6 hours; read-out: SYO1 BRD9-NanoLuc degradation IC50. On the procedure: Procedure: A stable SYO-1 cell line expressing 3×FLAG-NLuc-BRD9 was generated. On day 0 cells were seeded in 30 μL media into each well of 384-well cell culture plates. The seeding density was 8000 cells/well. […] Subsequently plates were incubated for 6 hours in a standard tissue culture incubator and equilibrated at room temperature for 15 minutes. Nanoluciferase activity was measured by adding 15 μL of freshly prepared Nano-Glo Luciferase Assay Reagent (Promega N1130), shaking the plates for 10 minutes and reading the bioluminescence using an EnVision reader.
Nanoluciferase-BRD9 fusion protein, sequence (Q9H8M2 whole entry, the tested form may be a part): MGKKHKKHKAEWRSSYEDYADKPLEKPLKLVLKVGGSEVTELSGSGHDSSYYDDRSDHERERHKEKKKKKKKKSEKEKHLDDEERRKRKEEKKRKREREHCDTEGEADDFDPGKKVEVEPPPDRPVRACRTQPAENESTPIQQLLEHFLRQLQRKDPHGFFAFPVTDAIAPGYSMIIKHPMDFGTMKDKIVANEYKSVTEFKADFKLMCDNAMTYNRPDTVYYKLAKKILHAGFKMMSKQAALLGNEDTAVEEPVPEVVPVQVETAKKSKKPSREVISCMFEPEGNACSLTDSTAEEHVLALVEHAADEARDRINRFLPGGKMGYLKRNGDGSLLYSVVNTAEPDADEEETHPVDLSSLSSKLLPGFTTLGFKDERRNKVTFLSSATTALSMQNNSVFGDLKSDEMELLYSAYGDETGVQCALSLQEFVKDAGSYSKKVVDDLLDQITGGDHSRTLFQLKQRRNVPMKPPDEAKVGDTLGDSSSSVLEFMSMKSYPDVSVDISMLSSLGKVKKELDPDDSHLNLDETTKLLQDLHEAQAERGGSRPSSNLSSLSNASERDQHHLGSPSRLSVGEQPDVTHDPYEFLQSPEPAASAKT
DMSO treated cells are employed as High Control (HC) and 1 μM of a known BRD9 degrader standard treated cells are employed as Low Control (LC).
Consider `COc1cc(-c2cn(C)c(=O)c3cnccc23)cc(OC)c1CN1CCC2(CC1)CCN(CCCC#Cc1ccc3c(c1)C(=O)N(C1CCC(=O)NC1=O)C3=O)C2` (stereo not shown) [Compound D213], for which the DC50 is less than 10 nM.

As to `COc1cc(-c2cn(C)c(=O)c3cnccc23)cc(OC)c1CN1CCN(CCCC#Cc2ccc3c(c2)C(=O)N(C2CCC(=O)NC2=O)C3=O)CC1` (stereo not shown) [Compound D214], the DC50 was less than 10 nM.

Take `COc1cc(-c2cn(C)c(=O)c3cnccc23)cc(OC)c1CN1CC2(CN(CCCC#Cc3ccc4c(c3)C(=O)N(C3CCC(=O)NC3=O)C4=O)C2)C1` (stereo not shown) [Compound D215]: the DC50 was less than 10 nM.

Take `COc1cc(-c2cn(C)c(=O)c3cnccc23)cc(OC)c1CN1CCN(C(=O)C#Cc2ccc3c(c2)C(=O)N(C2CCC(=O)NC2=O)C3=O)CC1` (stereo not shown) [Compound D216]: the DC50 was less than 10 nM.

For `COc1cc(-c2cn(C)c(=O)c3cnccc23)cc(OC)c1CN1CCC2(CC1)CN(C(=O)CCC#Cc1ccc3c(c1)C(=O)N(C1CCC(=O)NC1=O)C3=O)C2` (stereo not shown) [Compound D217], the DC50 is less than 10 nM.

Take `COc1cc(-c2cn(C)c(=O)c3cnccc23)cc(OC)c1CN1CC2(CCN(C(=O)CCC#Cc3ccc4c(c3)C(=O)N(C3CCC(=O)NC3=O)C4=O)C2)C1` (stereo not shown) [Compound D218]: the DC50 is less than 10 nM.

With `COc1cc(-c2cn(C)c(=O)c3cnccc23)cc(OC)c1CN1CC2(CCN(C(=O)CCC#Cc3ccc4c(c3)C(=O)N(C3CCC(=O)NC3=O)C4=O)CC2)C1` (stereo not shown) [Compound D219], the DC50 is less than 10 nM.

For the molecule `COc1cc(-c2cn(C)c(=O)c3cnccc23)cc(OC)c1CN1CCC2(CCC(C(=O)CCC#Cc3ccc4c(c3)C(=O)N(C3CCC(=O)NC3=O)C4=O)C2)CC1` (stereo not shown) [Compound D220], the DC50 was less than 10 nM.

As to `COc1cc(-c2cn(C)c(=O)c3cnccc23)cc(OC)c1CN1CCC(C(=O)N2CCC3(CC2)CC(Oc2ccc4c(c2)C(=O)N(C2CCC(=O)NC2=O)C4=O)C3)CC1` (stereo not shown) [Compound D221], the DC50 is less than 10 nM.

For `COc1cc(-c2cn(C)c(=O)c3cnccc23)cc(OC)c1CN(C)CCCCN1CCC2(CC1)CN(c1ccc3c(c1)C(=O)N(C1CCC(=O)NC1=O)C3=O)C2` (stereo not shown) [Compound D222], the DC50 was less than 10 nM.

`COc1cc(-c2cn(C)c(=O)c3cnccc23)cc(OC)c1CN(C)CCCCN1CC2(CCN(c3ccc4c(c3)C(=O)N(C3CCC(=O)NC3=O)C4=O)CC2)C1` (stereo not shown) [Compound D223]: the DC50 was less than 10 nM.

Regarding `COc1cc(-c2cn(C)c(=O)c3cnccc23)cc(OC)c1CN(C)CCCCN1CCC2(CC1)CCN(c1ccc3c(c1)C(=O)N(C1CCC(=O)NC1=O)C3=O)C2` (stereo not shown) [Compound D224], the DC50 was less than 10 nM.

On to `COc1cc(-c2cn(C)c(=O)c3cnccc23)cc(OC)c1CN(C)CCCCN1CCC2(CCN(c3ccc4c(c3)C(=O)N(C3CCC(=O)NC3=O)C4=O)C2)C1` (stereo not shown) [Compound D225], for which the DC50 was less than 10 nM.

Take `COc1cc(-c2cn(C)c(=O)c3cnccc23)cc(OC)c1CN(C)CCCCN1CCC2(C1)CN(c1ccc3c(c1)C(=O)N(C1CCC(=O)NC1=O)C3=O)C2` (stereo not shown) [Compound D226]: the DC50 is less than 10 nM.

`COc1cc(-c2cn(C)c(=O)c3cnccc23)cc(OC)c1CN(C)CCCCN1CCC2C1CN2c1ccc2c(c1)C(=O)N(C1CCC(=O)NC1=O)C2=O` (stereo not shown) [Compound D227]: the DC50 was less than 10 nM.

For the molecule `COc1cc(-c2cn(C)c(=O)c3cnccc23)cc(OC)c1CN(C)CCCCN1CCC2(CC1)CC(Oc1ccc3c(c1)C(=O)N(C1CCC(=O)NC1=O)C3=O)C2` (stereo not shown) [Compound D228], the DC50 was less than 10 nM.

In the case of `COc1cc(-c2cn(C)c(=O)c3cnccc23)cc(OC)c1CN(C)C(=O)CCCCN1CC(Oc2ccc3c(c2)C(=O)N(C2CCC(=O)NC2=O)C3=O)C1` (stereo not shown) [Compound D229], the DC50 is less than 10 nM.

As to `COc1cc(-c2cn(C)c(=O)c3cnccc23)cc(OC)c1CN(C)C(=O)CCCCN1CC2(CC(Oc3ccc4c(c3)C(=O)N(C3CCC(=O)NC3=O)C4=O)C2)C1` (stereo not shown) [Compound D230], the DC50 was less than 10 nM.

In the case of `COc1cc(-c2cn(C)c(=O)c3cnccc23)cc(OC)c1CN1CC(CC(=O)N[C@@H]2C[C@]23CCN(c2ccc4c(c2)C(=O)N(C2CCC(=O)NC2=O)C4=O)C3)C1` (stereo partly shown) [Compound D231], the DC50 is 100 to 1000 nM.
